From patent US9637469B2, “Pyridine derivative” (Teijin Pharma Limited, priority 2012, dated 2017)

Biological target: T1, human URAT1 (Homo sapiens, UniProt Q96S37)
T1 construct: Full-length cDNA of human URAT1 (hURAT1)
T1 sequence (Q96S37 1-553): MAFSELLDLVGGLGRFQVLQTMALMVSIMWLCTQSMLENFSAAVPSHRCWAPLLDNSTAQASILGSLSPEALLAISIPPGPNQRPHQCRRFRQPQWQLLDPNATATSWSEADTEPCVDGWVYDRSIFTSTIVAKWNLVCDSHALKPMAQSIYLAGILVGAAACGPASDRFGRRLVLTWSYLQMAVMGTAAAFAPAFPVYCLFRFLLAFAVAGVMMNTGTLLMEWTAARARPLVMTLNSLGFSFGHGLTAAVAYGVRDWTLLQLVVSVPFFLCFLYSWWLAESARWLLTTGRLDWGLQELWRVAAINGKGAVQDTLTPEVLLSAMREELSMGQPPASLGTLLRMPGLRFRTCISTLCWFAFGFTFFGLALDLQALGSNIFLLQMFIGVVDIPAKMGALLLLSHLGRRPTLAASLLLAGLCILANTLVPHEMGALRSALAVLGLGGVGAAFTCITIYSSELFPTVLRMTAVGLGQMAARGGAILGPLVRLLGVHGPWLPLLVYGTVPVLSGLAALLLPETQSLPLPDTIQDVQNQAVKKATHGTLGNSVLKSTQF
Assay: Test for inhibition of uric acid transport using human URAT1-expressing cells;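 note: three stars up to 0.2 µM two stars 0.2-2 µM one star 2-20 µM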
Format: cell-based
Conditions: HEK 293 cells expressing human URAT1, 14C-labeled uric acid 25 μM, uptake 37° C. for 5 min; for IC50: read-out: Inhibitory Activity (IC50 of uric acid transport inhibition)
Procedure: (1) Preparation of the Test Compound
The test compound was dissolved in DMSO (produced by Sigma) to a concentration of 20 mM and was subsequently used by diluting to desired concentrations.
(2) Test for Inhibition of Uric Acid Transport Using Human URAT1-Expressing Cells;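 note: three stars up to 0.2 µM two stars 0.2-2 µM one star 2-20 µM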
Full-length cDNA of human URAT1 (hURAT1) (produced by OriGene Technologies, Inc., NCBI Reference Sequence: NM 144585) was subcloned into an expression vector, pCMV6-Kan/Neo (produced by OriGene Technologies, Inc.), and hURAT1 gene was transfected into human embryonic kidney-derived cells (HEK 293 cells) by liposome method using Lipofectamine 2000 (produced by Invitrogen Corporation), whereupon HEK 293 cells expressing human URAT1 gene were screened by its Geneticin resistance. By a method similar to the following method, functional expression of human URAT1 gene was confirmed by using transport of ^14C-labeled uric acid into the cells as an index.
The HEK 293 cells expressing human URAT1 were seeded in a 24-well cell culture dish to a density of 3×10^5 cells/mL/well and were cultured in Dulbecco's modified Eagle's medium (D-MEM medium) containing 10% fetal bovine serum at 37° C. for 2 days. Thereafter, the following test for inhibition of uric acid transport was performed.
After the medium was removed by aspiration from each well, the medium was replaced with a solution obtained by substituting NaCl in Hank's Balanced Salt Solution (HBSS) with Na gluconate (hereinafter, HBSS/Na-gluconate) and the cells were preincubated at 37° C. for about 10 minutes. HBSS/Na-gluconate was removed by aspiration and a ^14C-uric acid solution that was warmed at 37° C. in advance containing various concentrations of the Example compound described in (1) and a radioactive ligand (^14C-labeled uric acid; final concentration 25 μM) was added and an uptake reaction was carried out by incubating at 37° C. for 5 min. After the incubation, ^14C-labeled uric acid solution was removed by aspiration and the cells were washed three times with ice-cold HBSS. The HEK 293 cells expressing human URAT1 were lysed in 0.2 mol/L aqueous NaOH (hereafter, the cell sample) and the cell samples were collected. The cell sample and a liquid scintillation liquid, ULTIMA GOLD (produced by PerkinElmer, Inc.) were mixed and the radioactivity was measured by a liquid scintillation counter (Beckman Coulter, Inc.).
The uric acid transport rate of the Example compound at each concentration (% of control uptake) was calculated relative to the radioactivity (radioactivity in human URAT1 expressing HEK 293 cells without addition of the Example compound (DMSO addition)) showing URAT1-specific uric acid transport as 100%, and the concentration (IC50) of the Example compound at which the uric acid transport rate is inhibited by 50% was determined. In addition, the symbols (*, **, and ***) in the table represent the following inhibitory activity values: • IC50≦_ 0.2 μM: *** • 0.2 μM<IC50≦2 μM: ** • 2 μM<IC50≦20 μM: *

Inhibitory Activity (IC50 of uric acid transport inhibition)	IC50 [µM]	Compound
	2 to 20	Cc1nc(-c2cccnc2)n(Cc2csc3cccc(C)c23)c1C(=O)O [Compound A5]
* *		Cc1nc(-c2cccnc2)n(Cc2csc3cccc(C(F)(F)F)c23)c1C(=O)O [Compound A6, 4-methyl-2-(pyridin-3-yl)-1-((4-(trifluoromethyl)benzo[b]thiophen-3-yl)-methyl)-1H-imidazole-5-carboxylic acid]
* *		Cc1nc(-c2cccnc2)n(Cc2csc3cccc(Br)c23)c1C(=O)O [Compound A8, 1-((4-bromobenzo[b]thiophen-3-yl)methyl)-4-methyl-2-(pyridin-3-yl)-1H-imidazole-5-carboxylic acid]
	2 to 20	Cc1nc(-c2cccnc2)n(Cc2csc3ccccc23)c1C(=O)O [Compound A16]
* *		Cc1nc(-c2cccnc2)n(Cc2ccc(C)c3ccccc23)c1C(=O)O [Compound A17, 4-methyl-1-((4-methylnaphthalen-1-yl)methyl)-2-(pyridin-3-yl)-1H-imidazole-5-carboxylic acid]
* *		O=C(O)c1c(C(F)(F)F)nc(-c2cccnc2)n1Cc1csc2cccc(Cl)c12 [Compound A27, 1-((4-chlorobenzo[b]thiophen-3-yl)methyl)-2-(pyridin-3-yl)-4-(trifluoromethyl)-1H-imidazole-5-carboxylic acid]
* *		O=C(O)c1c(C(F)(F)F)nc(-c2cccnc2)n1Cc1csc2cccc(Br)c12 [Compound A31, 1-((4-bromobenzo[b]thiophen-3-yl)methyl)-2-(pyridin-3-yl)-4-(trifluoromethyl)-1H-imidazole-5-carboxylic acid]
* *		O=C(O)c1c(C2CC2)nc(-c2cccnc2)n1Cc1csc2cccc(Cl)c12 [Compound A33, 1-((4-chlorobenzo[b]thiophen-3-yl)methyl)-4-cyclopropyl-2-(pyridin-3-yl)-1H-imidazole-5-carboxylic acid]
* *		O=C(O)c1c(C2CC2)nc(-c2cccnc2)n1Cc1csc2cccc(Br)c12 [Compound A34, 1-((4-bromobenzo[b]thiophen-3-yl)methyl)-4-cyclopropyl-2-(pyridin-3-yl)-1H-imidazole-5-carboxylic acid]
* *		O=C(O)c1c(C2CC2)nc(-c2cccnc2)n1Cc1csc2cccc(C(F)(F)F)c12 [Compound A35, 4-cyclopropyl-2-(pyridin-3-yl)-1-((4-(trifluoromethyl)benzo[b]thiophen-3-yl)methyl)-1H-imidazole-5-carboxylic acid]
* * *		CC(C)c1nc(-c2cccnc2)n(Cc2csc3cccc(Cl)c23)c1C(=O)O [Compound A37, 1-((4-chlorobenzo[b]thiophen-3-yl)methyl)-4-isopropyl-2-(pyridin-3-yl)-1H-imidazole-5-carboxylic acid]
* * *		CC(C)c1nc(-c2cccnc2)n(Cc2csc3cccc(Br)c23)c1C(=O)O [Compound A38, 1-((4-bromobenzo[b]thiophen-3-yl)methyl)-4-isopropyl-2-(pyridin-3-yl)-1H-imidazole-5-carboxylic acid]
* * *		CC(C)c1nc(-c2cccnc2)n(Cc2csc3cccc(C(F)(F)F)c23)c1C(=O)O [Compound A39, 4-isopropyl-2-(pyridin-3-yl)-1-((4-(trifluoromethyl)benzo[b]thiophen-3-yl)methyl)-1H-imidazole-5-carboxylic acid]
* *		CC(C)c1nc(-c2cccnc2)n(Cc2csc3ccccc23)c1C(=O)O [Compound A40, 1-(benzo[b]thiophen-3-ylmethyl)-4-isopropyl-2-(pyridin-3-yl)-1H-imidazole-5-carboxylic acid]

Further lines, the compound ahead of its results:

Compound	Inhibitory Activity (IC50 of uric acid transport inhibition)	IC50 [µM]
CCOC(=O)c1c(C)nc(-c2cccnc2)n1Cc1cccc2ccccc12 [Compound A3, ethyl 4-methyl-1-(naphthalen-1-ylmethyl)-2-(pyridin-3-yl)-1H-imidazole-5-carboxylate]	* *	
Cc1ccc2ccccc2c1Cn1c(-c2cccnc2)nc(C)c1C(=O)O [Compound A4]		2 to 20
O=C(O)c1c(Cl)nc(-c2cccnc2)n1Cc1cccc2ccccc12 [Compound A9, 4-chloro-1-(napthalen-1-ylmethyl)-2-(pyridin-3-yl)-1H-imidazole-5-carboxylic acid]	* *	
CCc1nc(-c2cccnc2)n(Cc2cccc3ccccc23)c1C(=O)O [Compound A10, 4-ethyl-1-(naphthalen-1-ylmethyl)-2-(pyridin-3-yl)-1H-imidazole-5-carboxylic acid]	* *	
O=C(O)c1c(C2CC2)nc(-c2cccnc2)n1Cc1cccc2ccccc12 [Compound A11, 4-cyclopropyl-1-(napthalen-1-ylmethyl)-2-(pyridin-3-yl)-1H-imidazole-5-carboxylic acid]	* *	
O=C(O)c1cnc(-c2cccnc2)n1Cc1cccc2ccccc12 [Compound A12]		2 to 20
Cc1ccc(Cn2c(-c3cccnc3)nc(C3CC3)c2C(=O)O)c2ccccc12 [Compound A18, 4-cyclopropyl-1-((4-methylnaphthalen-1-yl)methyl)-2-(pyridin-3-yl)-1H-imidazole-5-carboxylic acid]	* * *	
O=C(O)c1c(C(F)(F)F)nc(-c2cccnc2)n1Cc1csc2ccccc12 [Compound A22, 1-(benzo[b]thiophen-3-ylmethyl)-2-(pyridin-3-yl)-4-(trifluoromethyl)-1H-imidazole-5-carboxylic acid]	* *	
Cc1ccc(Cn2c(-c3cccnc3)nc(Cl)c2C(=O)O)c2ccccc12 [Compound A23, 4-chloro-1-((4-methylnaphthalen-1-yl)methyl)-2-(pyridin-3-yl)-1H-imidazole-5-carboxylic acid]	* *	
CC(C)c1nc(-c2cccnc2)n(Cc2cccc3ccccc23)c1C(=O)O [Compound A24, 4-isopropyl-1-(naphthalen-1-ylmethyl)-2-(pyridin-3-yl)-1H-imidazole-5-carboxylic acid]	* *	
Cc1ccc(Cn2c(-c3cccnc3)nc(C(C)C)c2C(=O)O)c2ccccc12 [Compound A25, 4-isopropyl-1-((4-methylnaphthalen-1-yl)methyl)-2-(pyridin-3-yl)-1H-imidazole-5-carboxylic acid]	* * *	
O=C(O)c1c(C(F)(F)F)nc(-c2cccnc2)n1Cc1cccc2cccc(Br)c12 [Compound A28]		2 to 20
Cc1cccc2cccc(Cn3c(-c4cccnc4)nc(C(F)(F)F)c3C(=O)O)c12 [Compound A30]		2 to 20
O=C(O)c1c(C(F)(F)F)nc(-c2cccnc2)n1Cc1csc2cccc(C(F)(F)F)c12 [Compound A32]		2 to 20
O=C(O)c1c(C2CC2)nc(-c2cccnc2)n1Cc1csc2ccccc12 [Compound A36, 1-(benzo[b]thiophen-3-ylmethyl)-4-cyclopropyl-2-(pyridin-3-yl)-1H-imidazole-5-carboxylic acid]	* *	
